From US20250034139A1, “AMINE COMPOUNDS HAVING ANTI-INFLAMMATORY, ANTIFUNGAL, ANTIPARASITIC, AND ANTICANCER ACTIVITY” (PHARMA CINQ, LLC, priority 2013, published 2025)

How the values were obtained:
[1] = tested on: EAE induced by PLP139-151; test: Example G: Experimental Autoimmune Encephalitis (EAE) mouse model of multiple sclerosis; format: in vivo
[2] = tested on: Vit-D3 activated THP-1 cells; test: Example B: Acridine Orange (A.O.) uptake, lysosomal acidification and integrity; format: cell-based, Human; settings: 5 hours
Protocol: In this experiment, cell viability was monitored and uptake and accumulation of acridine orange, a lysosomotropic fluorescent dye, was used to assess lysosomal acidification and integrity. JC-1 dye was used to measure effects of test compounds on mitochondrial membrane potential (MMP); reduction of MMP is a feature of apoptotic cell death. • 1. […] The tubes were washed twice in DPBS, resuspended in 500 μl DPBS and acquired on the FACSCalibur.

[3] = tested on: Vit-D3 activated THP-1 cells; test: Example B: JC-1 mitochondrial loading (mitochondrial membrane potential); format: cell-based, Human; settings: 5 hours
Protocol: In this experiment, cell viability was monitored and uptake and accumulation of acridine orange, a lysosomotropic fluorescent dye, was used to assess lysosomal acidification and integrity. JC-1 dye was used to measure effects of test compounds on mitochondrial membrane potential (MMP); reduction of MMP is a feature of apoptotic cell death.
• 1. Vit-D3 activated THP-1 cells (0.5×10^6 cells in 2 ml) were transferred to the wells of a 24-well dish • 2. […] […] LPS from E. coli 0111:B4 (1 ng/ml final concentration) was added to some wells • 5. After 5 hours viable cell count, Acridine Orange (A.O.) uptake and JC-1 mitochondrial loading were determined by fluorescence-activated cell sorting (FACS)
THP-1 cells (p39) treated with 0.1 μM vit-D3 (100 μM) in DMSO] for 3 days were counted, spun down, resuspended in serum-free RPMI (Lonza 12-115F) and transferred to the wells of two 24-well dishes (0.5×10^6 cells in 2 ml). […] Crude-LPS from E. coli 0111:B4 was added to some wells (1 ng/ml final conc) and the plates placed in a 37 C incubator. 1 μl of Baf A1 (50 nM final conc) was added to one well (no LPS) at T=4 hours to serve as a compensation control for Acridine Orange loading. After 5 hours, 500 μl aliquots of cells were transferred to FACS tubes and viable cell counts, A.O. loading and JC-1 accumulation determined by FACS.

PC-3 cells = test: Example P: PC-3 human hormone-independent prostate cancer xenografts in nude mice; format: in vivo
Protocol: Standard models for prostate cancer use subcutaneous xenografts of human prostate cancer cell line. Local measurable tumors are produced at the site of injection of the cells, and they metastasize to critical tissues such as the bones, lungs and liver. Mortality in this model is due to metastases impairing tissue function. Compounds of the invention were assessed for inhibition of tumor growth and reduction or delay of mortality in the PC-3 prostate cancer model, which mimics an advanced, androgen-independent stage of prostate cancer.
10 female nude mice (female Hsd:athymic nude-Foxn1^nu) received PC-3 cells (5×10^6 per mouse in 0.1 mL PBS) by subcutaneous injection into the right hind flank. […] Mice received AC or vehicle (saline) via intraperitoneal (i.p.) injection once daily until day 79. • 1. […] Compound AC: 120 μmol/kg/day.
Tumors were measured with calipers twice per week, and body weights and mortality were also monitored.

[4] = AC 120 μmol/kg/day i.p. once daily, group of 5

For `CCCCCCOc1cccc(OCCCNc2ccnc3ccccc23)c1` [AZ, N-{3-[3-(Hexyloxy)phenoxy]propyl}quinolin-4-amine], the “EAE Score on Day 46” value ([1]; 60 μmol/kg by oral gavage from Day 14, score 0-5) was 2.50 ± 0.29 and the “EAE Score on Day 14 (Before Treatment)” value ([1]; baseline, score 0-5) was 0.83 ± 0.41.

With `CCCCCCOc1cccc(CNc2ccnc3ccccc23)c1` [Compound AC, N-[3-(Hexyloxy)benzyl]quinolin-4-amine] the “A.O. FL-3 fluorescence (MFI) percent change from DMSO no LPS, Mean ± SE” value ([2]; 0.1 μM AC, 1 ng/ml LPS) was −54.72 ± 2.74%, the “A.O. FL-3 fluorescence (MFI) percent change from DMSO no LPS, Mean ± SE” value ([2]; 0.1 μM AC, No LPS) was −27.64 ± 9.68% and the “A.O. FL-3 fluorescence (MFI) percent change from DMSO no LPS, Mean ± SE” value ([2]; 0.5 μM AC, 1 ng/ml LPS) was −68.24 ± 2.39%. The “A.O. FL-3 fluorescence (MFI) percent change from DMSO no LPS, Mean ± SE” value ([2]; 0.5 μM AC, No LPS) was −54.59 ± 4.05%, the “A.O. FL-3 fluorescence (MFI) percent change from DMSO no LPS, Mean ± SE” value ([2]; 1.0 μM AC, 1 ng/ml LPS) was −81.11 ± 2.65% and the “A.O. FL-3 fluorescence (MFI) percent change from DMSO no LPS, Mean ± SE” value ([2]; 1.0 μM AC, No LPS) was −69.52 ± 2.05%. The “JC-1 Red cells (functional mitochondria) percent change from DMSO (no LPS), Mean ± SE” value ([3]; 0.1 μM AC, 1 ng/ml LPS) was −1.66 ± 0.96%, the “JC-1 Red cells (functional mitochondria) percent change from DMSO (no LPS), Mean ± SE” value ([3]; 0.1 μM AC, No LPS) was 1.18 ± 0.91% and the “JC-1 Red cells (functional mitochondria) percent change from DMSO (no LPS), Mean ± SE” value ([3]; 0.5 μM AC, 1 ng/ml LPS) was −7.19 ± 1.52%. For the same molecule, the “JC-1 Red cells (functional mitochondria) percent change from DMSO (no LPS), Mean ± SE” value ([3]; 0.5 μM AC, No LPS) was −4.39 ± 1.40%, the “JC-1 Red cells (functional mitochondria) percent change from DMSO (no LPS), Mean ± SE” value ([3]; 1.0 μM AC, 1 ng/ml LPS) was −16.41 ± 2.60% and the “JC-1 Red cells (functional mitochondria) percent change from DMSO (no LPS), Mean ± SE” value ([3]; 1.0 μM AC, No LPS) was −10.40 ± 2.08%. The “mean body weight at end of study” value (PC-3 cells; AC 120 μmol/kg/day i.p.) was 28.9 ± 1.3 g, the “mice regressed more than 50% from the initial tumor size” value (PC-3 cells; AC 120 μmol/kg/day i.p.) was “one” and the “mice with no detectable tumors at end of study (complete regressions)” value (PC-3 cells; AC 120 μmol/kg/day i.p.) was “two”. For the same molecule, the “day of death of the one mouse that died” value (PC-3 cells; [4]) was 65 days, the “number of mice surviving until the study was terminated on day 79” value (PC-3 cells; [4]) was 4 and the “tumor size, average % of initial size” value (PC-3 cells; day 77, AC 120 μmol/kg/day i.p.) was 949%. For the same molecule, the “initial group body weight” value (PC-3 cells; pretreatment) was 26.8 ± 0.5 g.
